In PubChem BioAssay (NCI):
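These data come from cells grown in 96-well plates and exposed to compound for 48 hours at five concentrations. The concentration for full growth arrest is given as TGI.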

Legend:
Assay in all cases: NCI tumour cell line growth inhibition, 48 h
786-0 renal = tested on: 786-0 renal
A498 renal = tested on: A498 renal
A549 NSCLC = tested on: A549 NSCLC
ACHN renal = tested on: ACHN renal
CAKI-1 renal = tested on: CAKI-1 renal
CCRF-CEM leukemia = tested on: CCRF-CEM leukemia
COLO 205 colon = tested on: COLO 205 colon
DLD-1 colon = tested on: DLD-1 colon
DMS 114 small cell lung = tested on: DMS 114 small cell lung
DMS 273 small cell lung = tested on: DMS 273 small cell lung
HCC-2998 colon = tested on: HCC-2998 colon
HCT-116 colon = tested on: HCT-116 colon
HCT-15 colon = tested on: HCT-15 colon
HL-60(TB) leukemia = tested on: HL-60(TB) leukemia
HOP-18 NSCLC = tested on: HOP-18 NSCLC
HOP-62 NSCLC = tested on: HOP-62 NSCLC
HOP-92 NSCLC = tested on: HOP-92 NSCLC
HT29 colon = tested on: HT29 colon
IGROV1 ovarian = tested on: IGROV1 ovarian
K-562 leukemia = tested on: K-562 leukemia
KM12 colon = tested on: KM12 colon
LOX IMVI melanoma = tested on: LOX IMVI melanoma
LXFL 529 NSCLC = tested on: LXFL 529 NSCLC
M14 melanoma = tested on: M14 melanoma
M19-MEL melanoma = tested on: M19-MEL melanoma
MALME-3M melanoma = tested on: MALME-3M melanoma
MOLT-4 leukemia = tested on: MOLT-4 leukemia
NCI-H23 lung = tested on: NCI-H23 lung
NCI-H522 lung = tested on: NCI-H522 lung
OVCAR-3 ovarian = tested on: OVCAR-3 ovarian
OVCAR-4 ovarian = tested on: OVCAR-4 ovarian
OVCAR-5 ovarian = tested on: OVCAR-5 ovarian
OVCAR-8 ovarian = tested on: OVCAR-8 ovarian
RPMI-8226 leukemia = tested on: RPMI-8226 leukemia
RXF 393 renal = tested on: RXF 393 renal
SF-268 CNS = tested on: SF-268 CNS
SF-295 CNS = tested on: SF-295 CNS
SF-539 CNS = tested on: SF-539 CNS
SK-MEL-2 melanoma = tested on: SK-MEL-2 melanoma
SK-MEL-28 melanoma = tested on: SK-MEL-28 melanoma
SK-MEL-5 melanoma = tested on: SK-MEL-5 melanoma
SK-OV-3 ovarian = tested on: SK-OV-3 ovarian
SN12C renal = tested on: SN12C renal
SNB-19 CNS = tested on: SNB-19 CNS
SNB-75 CNS = tested on: SNB-75 CNS
SW-620 colon = tested on: SW-620 colon
TK-10 renal = tested on: TK-10 renal
U251 CNS = tested on: U251 CNS
UACC-62 melanoma = tested on: UACC-62 melanoma
UO-31 renal = tested on: UO-31 renal
NCI-H226 lung = tested on: NCI-H226 lung
NCI-H460 lung = tested on: NCI-H460 lung
SR leukemia = tested on: SR leukemia
UACC-257 melanoma = tested on: UACC-257 melanoma

Measured: TGI

CC(C1=CC=C2[C@@H]3CCC4CC(N(C)C)CC[C@]4(C)C3CC[C@]12C)N(C)C=O (stereo partly specified)
not listed: NCI-H226 lung | NCI-H460 lung | SR leukemia | UACC-257 melanoma
> 100 µM: all other assays above

Cc1nc2ccccc2c(=O)n1NC(=S)Nc1ccccc1
not listed: HCC-2998 colon | OVCAR-3 ovarian | SNB-19 CNS
> 100 µM: all other assays above
